This note sets out measurements from the OligoGym collection.

Values joined by “and” are separate entries in the source; they are usually repeats but may differ in a detail not shown here. Identical values can stand only once. After the bases stand the sugars from the 5' end (letter, count) and the backbone: PS all phosphorothioate, else s phosphorothioate and o phosphodiester by linkage. Methylation of C is not given here. e = 2'-O-(2-methoxyethyl) (MOE); k = constrained ethyl (cEt); d = 2'-deoxy (DNA)

The target of this series is APOL1. Particulars: ASO.

On to “GCAATGCTGACTTGGC (sugars kkddddkekekkdddd, PS)”, for which the target mRNA inhibition runs as follows: (A431, 0.0156 µM) 5%; (A431, 0.0625 µM) 12%; (A431, 0.25 µM) 44%; (A431, 1 µM) 80%; (A431, 2 µM) 91%.
Turning to GCAGTTTCATATTCAC (sugars k4 d9 k3, PS), the target mRNA inhibition (A431, 0.0625 µM) was determined as 75%; the target mRNA inhibition (A431, 0.25 µM) was determined as 92%; the target mRNA inhibition (A431, 1 µM) turned out to be 98%.
“GCAGTTTTGTAAGTGC (sugars k3 d4 k3 e1 d5, PS)” yielded a target mRNA inhibition (A431, 2 µM) of 76%.
As to “GCTAATTTTCTGACTG (sugars k2 d4 e3 k2 d5, PS)”, the target mRNA inhibition (A431, 0.0156 µM) was found to be 35%; the target mRNA inhibition (A431, 0.0625 µM) was 62%; the target mRNA inhibition (A431, 0.25 µM) came out at 81%; the target mRNA inhibition (A431, 1 µM) worked out at 92%; the target mRNA inhibition (A431, 2 µM) worked out at 94%.
On the same counts, the results for “GCTAATTTTCTGACTG (sugars k3 d4 k3 e1 d5, PS)” are 2%, 46%, 76%, 87% and 92%.
Take “GCTAATTTTCTGACTG (sugars kdddddkekekddddd, PS)”: the target mRNA inhibition (A431, 2 µM) turned out to be 98%.
GCTATGGAAATGCCAA (sugars k4 d9 k3, PS): the target mRNA inhibition reads like this: (A431, 0.0625 µM) 28%; (A431, 0.25 µM) 61%; (A431, 1 µM) 81%.
The corresponding values for GCTGGGTCTGTAGTGG (sugars k4 d9 k3, PS) are 49%, 70% and 82%.
As to “GCTTTAAACTCAGGTG (sugars kkddddekekeddddd, PS)”, the target mRNA inhibition is, setting by setting: (A431, 0.0156 µM) 14%; (A431, 0.0625 µM) 41%; (A431, 0.25 µM) 62%; (A431, 1 µM) 86%; (A431, 2 µM) 92%.
On to “GCTTTAAACTCAGGTG (sugars kkkddddkekeddddd, PS)”, for which, under “A431, 2 µM”, the target mRNA inhibition was determined as 82%.
Turning to GGAAATGAACGCAATG (sugars k4 d9 k3, PS), the target mRNA inhibition (A431, 0.0625 µM) was 37%; the target mRNA inhibition (A431, 0.25 µM) worked out at 71%; the target mRNA inhibition (A431, 1 µM) came out at 87%.
For “GGAATTATGGAATTGC (sugars kkkddddkdkdkdddd, PS)”, where the note is “A431, 2 µM”, the target mRNA inhibition was 76%.
Under “A431, 2 µM”, “GGCAGTTTTGTAAGTG (sugars k2 d4 e3 k2 d5, PS)” gave a target mRNA inhibition of 80%.
Same read-out and setting: as for “GGGAATTATGGAATTG (sugars k2 d4 e3 k2 d5, PS)”, the figure is 86%.
In the case of GGGAATTATGGAATTG (sugars k4 d9 k3, PS), the target mRNA inhibition was 48% and 59% (A431, 0.0625 µM); 70% and 67% (A431, 0.25 µM); 80% and 77% (A431, 1 µM).
“GGGTTATGAAATTATT (sugars kkddddekekeddddd, PS)”: where the note is “A431, 2 µM”, the target mRNA inhibition stood at 88%.
Still for that read-out and setting: next, “GGTTCAAAAGCAGCAT (sugars k3 d4 k3 e1 d5, PS)”: 74%; “GGTTCAAAAGCAGCAT (sugars kkkddddkekeddddd, PS)”: 70%.
GGTTGTCCAGAGCTTT (sugars k4 d9 k3, PS) came in with a target mRNA inhibition (A431, 0.0625 µM) of 100%; a target mRNA inhibition (A431, 0.25 µM) of 84%; a target mRNA inhibition (A431, 1 µM) of 91%.
Sequence “GTAAGTATTGCCAGCT (sugars kkkddddkekekdddd, PS)” registered a target mRNA inhibition (A431, 2 µM) of 73%.
Turning to GTAGAATGAGCAGGTC (sugars k4 d9 k3, PS), the target mRNA inhibition is, setting by setting: (A431, 0.0625 µM) 84%; (A431, 0.25 µM) 97%; (A431, 1 µM) 99%.
On to “GTATTGTTTTTGTGGG (sugars kkddddkekekkdddd, PS)”, for which, under “A431, 2 µM”, the target mRNA inhibition came out at 39%.
The same measure, in the same setting: next, “GTATTTCTTGATGTGG (sugars k3 d4 k3 e1 d5, PS)”: 98%.
Consider “GTATTTCTTGATGTGG (sugars k3 d5 k3 d5, PS)”, for which the target mRNA inhibition is 95% and 98% and 99% (A431, 0.25 µM); 97% and 99% and 100% (A431, 1 µM); 99% and 100% (A431, 2 µM).
Consider “GTATTTCTTGATGTGG (sugars kekddddeekkddddd, PS)”, for which the target mRNA inhibition is, setting by setting: (A431, 0.04 µM) 70%; (A431, 1 µM) 99%; (A431, 2 µM) 99%.
Regarding “GTATTTCTTGATGTGG (sugars kkdddddkekeddddd, PS)”, the target mRNA inhibition (A431, 0.0156 µM) is 59%; the target mRNA inhibition (A431, 0.04 µM) came out at 64%; the target mRNA inhibition (A431, 0.0625 µM) amounted to 89%; the target mRNA inhibition (A431, 0.25 µM) is 97%; the target mRNA inhibition (A431, 1 µM) is 98% and 99%; the target mRNA inhibition (A431, 2 µM) came out at 98%.
GTCTAAAGTAAACTGC (sugars k4 d9 k3, PS): the target mRNA inhibition is, setting by setting: (A431, 0.25 µM) 65% and 83%; (A431, 1 µM) 81% and 89%.
For the sequence “GTGAGTATTGTTTTTG (sugars kkddddekekeddddd, PS)”, under “A431, 2 µM”, the target mRNA inhibition amounted to 93%.
With “GTGTATTTCTTGATGT (sugars k2 d4 e3 k2 d5, PS)”, the target mRNA inhibition is, setting by setting: (A431, 0.0156 µM) 18%; (A431, 0.0625 µM) 51%; (A431, 0.25 µM) 79%; (A431, 1 µM) 91%; (A431, 2 µM) 96%.
The corresponding values for “GTTATATTTGATCCTC (sugars kdddddkekekddddd, PS)” are 26%, 56%, 78%, 92% and 95%.
As for “GTTATATTTGATCCTC (sugars kkddddkekekddddd, PS)”, for the setting “A431, 2 µM”, the target mRNA inhibition came out at 80%.
The same measure, in the same setting: next, “GTTATGAAATTATTGG (sugars kdddddkekekddddd, PS)”: 73%.
Same read-out and setting: as for “GTTATGAAATTATTGG (sugars kkddddekekeddddd, PS)”, the figure is 68%; as for “GTTATGAAATTATTGG (sugars kkddddkekekddddd, PS)”, 83%.
Same read-out and setting: next, “GTTCAAAAGCAGCATT (sugars k3 d4 k3 e1 d5, PS)”: 80%.
Consider “GTTCAAAAGCAGCATT (sugars kkkddddkekekdddd, PS)”, for which the target mRNA inhibition (A431, 2 µM) is 24%.
On to “GTTCTAACTCTTGGGC (sugars kdddddkekekddddd, PS)”, for which the target mRNA inhibition (A431, 2 µM) is 28%.
The sequence “GTTCTAACTCTTGGGC (sugars kddddkekekeddddd, PS)” registered a target mRNA inhibition (A431, 2 µM) of 77%.
GTTTACTTACCGGGTA (sugars k4 d9 k3, PS): the target mRNA inhibition by setting is: (A431, 0.0625 µM) 47% and 38%; (A431, 1 µM) 84% and 63%.
In the case of GTTTTATGGAGTCATT (sugars k4 d9 k3, PS), the target mRNA inhibition is 51% and 34% (A431, 0.0625 µM); 78% and 70% (A431, 0.25 µM); 92% and 84% (A431, 1 µM).
As to “GTTTTGTAAGTGCAAC (sugars k2 d4 e3 k2 d5, PS)”, where the note is “A431, 2 µM”, the target mRNA inhibition was 83%.
The same measure, in the same setting: as for “GTTTTGTAAGTGCAAC (sugars kkddddekekeddddd, PS)”, the figure is 86%; as for “TAAGTATTGCCAGCTA (sugars k2 d4 e3 k2 d5, PS)”, 79%; as for “TAAGTATTGCCAGCTA (sugars kkkddddkekeddddd, PS)”, 78%.
As to TAAGTGCTTTGATTCG (sugars k4 d9 k3, PS), the target mRNA inhibition (A431, 0.0625 µM) is 64% and 82%; the target mRNA inhibition (A431, 0.25 µM) is 87% and 92%; the target mRNA inhibition (A431, 1 µM) was 94% and 96%.
Turning to “TAATTCTATTAGAGGG (sugars kkddddekekeddddd, PS)”, the target mRNA inhibition (A431, 2 µM) is 46%.
For TACTTCTGTTAGATAC (sugars k4 d9 k3, PS), the target mRNA inhibition was 47% (A431, 0.0625 µM); 76% (A431, 0.25 µM); 92% (A431, 1 µM).
In turn, “TATATTTGATCCTCAA (sugars kddddkekekeddddd, PS)” displayed a target mRNA inhibition (A431, 2 µM) of 75%.
Consider “TATTTCTTGATGTGGT (sugars k3 d4 k3 e1 d5, PS)”, for which the target mRNA inhibition is, setting by setting: (A431, 0.0156 µM) 45%; (A431, 0.0625 µM) 78%; (A431, 0.25 µM) 95%; (A431, 1 µM) 98%; (A431, 2 µM) 99%.
As for “TATTTCTTGATGTGGT (sugars kkddddekekeddddd, PS)”, the target mRNA inhibition was 36% (A431, 0.0156 µM); 53% and 50% (A431, 0.04 µM); 66% (A431, 0.0625 µM); 90% (A431, 0.25 µM); 98% and 96% (A431, 1 µM); 99% (A431, 2 µM).
Regarding “TATTTCTTGATGTGGT (sugars kkddddkdkdkddddd, PS)”, the target mRNA inhibition is, setting by setting: (A431, 0.0156 µM) 40%; (A431, 0.0625 µM) 71%; (A431, 0.25 µM) 91%; (A431, 1 µM) 96%; (A431, 2 µM) 97%.
The corresponding values for “TATTTCTTGATGTGGT (sugars kkddddkekekddddd, PS)” are 44%, 77%, 92%, 96% and 97%.
Consider TCAACACATCATTGGG (sugars k4 d9 k3, PS), for which the target mRNA inhibition is, setting by setting: (A431, 0.0625 µM) 38%; (A431, 0.25 µM) 73%; (A431, 1 µM) 90%.
As for “TCAGATGGGTACTTCT (sugars k2 d4 e4 k2 d4, PS)”, the target mRNA inhibition (A431, 2 µM) stood at 78%.
As for TCAGATGGGTACTTCT (sugars k4 d9 k3, PS), the target mRNA inhibition (A431, 0.0625 µM) was determined as 38%; the target mRNA inhibition (A431, 0.25 µM) is 66%; the target mRNA inhibition (A431, 1 µM) is 83%.
As to “TCAGATGGGTACTTCT (sugars kkkddddkekekdddd, PS)”, the target mRNA inhibition (A431, 2 µM) stood at 50%.
With TCAGCTAAGACCAGTG (sugars k4 d9 k3, PS), the target mRNA inhibition (A431, 0.0625 µM) was determined as 53%; the target mRNA inhibition (A431, 0.25 µM) stood at 78%; the target mRNA inhibition (A431, 1 µM) came to 89%.
Turning to TCAGCTATGGAAATGC (sugars k4 d9 k3, PS), the target mRNA inhibition is, setting by setting: (A431, 0.0625 µM) 45%; (A431, 0.25 µM) 78%; (A431, 1 µM) 92%.
